Results: patent US9288983B2, “Compositions of dibromomalonamide and their use as biocides” (Dow Global Technologies LLC, priority 2009, dated 2016)
Like-named read-outs stand apart in the source and are kept apart here.

Tests used:
[1] = tested on: mixture of Pseudomonas aeruginosa, Klebsiella pneumoniae, Staphylococcus aureus, and Bacillus subtilis; assay: Growth inhibition assay (microtiter plate, OD580); assay type: cell-based; conditions: for I90 value: 24 hr; for % Inhibition of growth by single active / inhibition at 0.39 µg/mL / inhibition at 0.78 µg/mL / inhibition at 1.56 µg/mL / inhibition at 3.13 µg/mL / inhibition at 6.25 µg/mL / inhibition at 12.5 µg/mL / inhibition at 25 µg/mL: 24 h; for inhibition at 0.39 µg/mL / inhibition at 0.78 µg/mL / inhibition at 1.56 µg/mL / inhibition at 3.13 µg/mL / inhibition at 6.25 µg/mL / inhibition at 12.5 µg/mL / inhibition at 25 µg/mL: read-out: % Inhibition of growth by single active
Text: Growth Inhibition Assay. […] Regardless of the mechanism of action, the impact of a biocide (or combination of biocides) can be measured over time on the basis of an increase in the size of the community.
The assay measures the efficacy of one or more biocides at preventing growth of a consortium of bacteria in a dilute mineral salts medium. The medium contains (in mg/l) the following components: FeCl3.6H2O (1); CaCl2.2H2O (10); MgSO4.7H2O (22.5); (NH4)2SO4 (40); KH2PO4 (10); K2HPO4 (25.5); Yeast Extract (10); and glucose (100). After all components are added to deionized water, the pH of the medium is adjusted to 7.5. Following filter sterilization, aliquots are dispensed in 100 ul quantities to sterile microtiter plate wells. Dilutions of DBMAL and/or “Biocide B” are then added to the microtiter plate. After preparing the combinations of actives as illustrated below, each well is inoculated with 100 μl of a cell suspension containing ca. […] cells per milliliter of a mixture of Pseudomonas aeruginosa, Klebsiella pneumoniae, Staphylococcus aureus, and Bacillus subtilis. The final total volume of medium in each well is 300 μl. Once prepared as described herein, the concentration of each active ranges from 25 ppm to 0.19 ppm as illustrated in Table 1. The resulting matrix allows testing of eight concentrations of each active and 64 combinations of actives in the ratios (of actives).
Controls (not shown) contain the medium with no biocide added. After preparing the combinations of actives as illustrated above, each well is inoculated with 100 μl of a cell suspension containing ca. […] cells per milliliter of a mixture of Pseudomonas aeruginosa, Klebsiella pneumoniae, Staphylococcus aureus, and Bacillus subtilis. The final total volume of medium in each well is 300 μl.
Immediately after the microtiter plates are prepared, the optical density (OD) readings for each well is measured at 580 nm and the plates are then incubated at 37° C. for 24 hr. After the incubation period, the plates are gently agitated before OD580 values are collected. The OD580 values at T0 are subtracted from T24 values to determine the total amount of growth (or lack thereof) that occurs. These values are used to calculate the percent inhibition of growth caused by the presence of each biocide and each of the 64 combinations.
where • CDBMAL: Concentration of DBMAL required to inhibit ˜90% of bacterial growth when used alone • CB: Concentration of biocide (B) required to inhibit ˜90% of bacterial growth when used alone. • MDBMAL: Concentration of DBMAL required to inhibit ˜90% of bacterial growth when used in combination with biocide (B). • MB: Concentration of biocide (B) required to inhibit ˜90% of bacterial growth when used in combination with DBMAL
(§1) The SI values are interpreted as follows: • SI<1: Synergistic combination • SI=1: Additive combination • SI>1: Antagonistic combination
(§2) In the Examples below, the amounts of biocides in the solution are measured in mg per liter of solution (mg/l). Since solution densities are approximately 1.0, the mg/l measurement corresponds to weight ppm. Both units may therefore be used interchangeably in the Examples.

[2] = tested on: mixture of Pseudomonas aeruginosa ATCC 10045 and Staphylococcus aureus ATCC 6538; assay: Kill assay (minimum biocide concentration, MBC); assay type: cell-based; conditions: single active, 37° C., 2 hours
Experimental: The procedure is as follows.
as §1, §2

N#CSCSC#N [MBT, methylene bis(thiocyanate)]
I90 value ([1]; Example 3, single active): 0.78 mg/L
% Inhibition of growth by single active ([1]; Table 7, 0.39 mg/l alone): 24%

O=[N+]([O-])C(Br)(CO)CO [Bronopol, 2-bromo-2-nitropropane-1,3-diol]
MBC (minimum biocide concentration needed to completely kill the bacterial cells), biocide alone [2]: >150 µg/mL
inhibition at 0.39 µg/mL ([1]; Table 3, 0.39 mg/l alone): 0%
inhibition at 0.78 µg/mL ([1]; Table 3, 0.78 mg/l alone): 0%
inhibition at 1.56 µg/mL ([1]; Table 3, 1.56 mg/l alone): 0%
inhibition at 3.13 µg/mL ([1]; Table 3, 3.13 mg/l alone): 67%
inhibition at 6.25 µg/mL ([1]; Table 3, 6.25 mg/l alone): 96%
inhibition at 12.5 µg/mL ([1]; Table 3, 12.5 mg/l alone): 99%
inhibition at 25 µg/mL ([1]; Table 3, 25.0 mg/l alone): 97%

N#CCCC(Br)(C#N)CBr (stereo not drawn) [DBDCB, 1,2-Dibromo-2,4-dicyanobutane]
inhibition at 0.39 µg/mL ([1]; Table 9, 0.39 mg/l alone): 0%
inhibition at 0.78 µg/mL ([1]; Table 9, 0.78 mg/l alone): 0%
inhibition at 1.56 µg/mL ([1]; Table 9, 1.56 mg/l alone): 17%
inhibition at 3.13 µg/mL ([1]; Table 9, 3.13 mg/l alone): 43%
inhibition at 6.25 µg/mL ([1]; Table 9, 6.25 mg/l alone): 100%
inhibition at 12.5 µg/mL ([1]; Table 9, 12.5 mg/l alone): 99%
inhibition at 25 µg/mL ([1]; Table 9, 25.0 mg/l alone): 97%
I90 value ([1]; Example 4, single active): 6.25 mg/L

O=[N+]([O-])C(Br)=Cc1ccccc1 [BNS, bromonitrostyrene]
I90 value ([1]; Example 2, single active): 6.25 mg/L
% Inhibition of growth by single active ([1]; Table 5, 0.78 mg/l alone): 19%
% Inhibition of growth by single active ([1]; Table 5, 1.56 mg/l alone): 42%
% Inhibition of growth by single active ([1]; Table 5, 3.13 mg/l alone): 75%

NC(=O)C(Br)(Br)C(N)=O [DBMAL, 2,2-dibromomalonamide]
MBC (minimum biocide concentration needed to completely kill the bacterial cells), biocide alone [2]: 66.7 µg/mL
inhibition at 0.39 µg/mL ([1]; Table 3, 0.39 mg/l alone): 8%
inhibition at 0.78 µg/mL ([1]; Table 3, 0.78 mg/l alone): 12%
inhibition at 1.56 µg/mL ([1]; Table 3, 1.56 mg/l alone): 13%
inhibition at 3.13 µg/mL ([1]; Table 3, 3.13 mg/l alone): 17%
inhibition at 12.5 µg/mL ([1]; Table 3, 12.5 mg/l alone): 97%
inhibition at 0.39 µg/mL ([1]; Table 5, 0.39 mg/l alone): 1%
inhibition at 3.13 µg/mL ([1]; Table 5, 3.13 mg/l alone): 34%
inhibition at 6.25 µg/mL ([1]; Table 5, 6.25 mg/l alone): 65%
inhibition at 25 µg/mL ([1]; Table 5, 25.0 mg/l alone): 98%
inhibition at 0.39 µg/mL ([1]; Table 7, 0.39 mg/l alone): 23%
inhibition at 0.78 µg/mL ([1]; Table 7, 0.78 mg/l alone): 58%
inhibition at 1.56 µg/mL ([1]; Table 7, 1.56 mg/l alone): 52%
inhibition at 3.13 µg/mL ([1]; Table 7, 3.13 mg/l alone): 61%
inhibition at 6.25 µg/mL ([1]; Table 7, 6.25 mg/l alone): 41%
inhibition at 25 µg/mL ([1]; Table 7, 25.0 mg/l alone): 98%
inhibition at 0.78 µg/mL ([1]; Table 9, 0.78 mg/l alone): 11%
inhibition at 1.56 µg/mL ([1]; Table 9, 1.56 mg/l alone): 14%
inhibition at 3.13 µg/mL ([1]; Table 9, 3.13 mg/l alone): 20%
inhibition at 6.25 µg/mL ([1]; Table 9, 6.25 mg/l alone): 100%
I90 value ([1]; Example 2, single active): 12.5 mg/L
I90 value ([1]; Example 3, single active): 12.5 mg/L
I90 value ([1]; Example 4, single active): 6.25 mg/L
